{
  "source": "patent US7893082B2",
  "about": "“Substituted tetrahydroquinolines” (Merck Patent GmbH, priority 2005, dated 2011)",
  "tested_on": "cells",
  "assay": "cell cycle effect (appended experiments)",
  "type": "cell-based",
  "settings": "G2/M cell cycle",
  "data": [
    {"smiles": "N=C(N)c1ccc(OCCCCCOc2ccc(C(=N)N)cc2)cc1", "note": "[pentamidine]", "values": [
      {"measurement": "effect on cell cycle", "value": "maintain cells in the G2/M cell cycle"}
    ]}
  ]
}
